The test system of assay [1] is thrombocyte aggregation in platelet-rich plasma. As to the kind of experiment: Antithrombotic effect: collagen-induced thrombocyte aggregation in platelet-rich plasma (Born and Cross). The class given is cell-based. To be noted: human platelet-rich plasma, 10 minutes preincubation at 37° C., read-out: Inhibition of platelet aggregation EC50. As for the experimental part: 2. Antithrombotic Effect Method: The thrombocyte aggregation was measured in platelet-rich plasma from healthy test subjects using the Born and Cross method (J. Physiol. 170: 397 (1964)). In order to inhibit coaggulation the blood was mixed with 3.14% sodium citrate in a ratio by volume of 1:10. Collagen-induced aggregation: The decrease in the optical density of the platelet suspension was measured photometrically and recorded after the addition of the aggregation-initiating substance. The speed of aggregation was concluded from the angle of inclination of the density curve. The point on the curve at which there was maximum transmittance was used to calculate the optical density. The quantity of collagen used was as little as possible but sufficient to give an irreversible reaction curve. Standard commercial collagen produced by Hormonchemie of Munich was used. Before the addition of collagen the plasma was incubated with the substance for 10 minutes at 37° C. From the measurements obtained, an EC50 was determined graphically, relating to a 50% change in the optical density in terms of inhibiting aggregation.

The test system of a further assay is Human Thrombocytes. Briefly: Fibrinogen Binding to Human Thrombocytes (I125-fibrinogen, gel-filtered platelets). Particulars: inhibition of I125-fibrinogen binding to gel-filtered human platelets, ADP, 20 minutes, ambient temperature; read-out: Fibrinogen Binding test IC50. As for the experimental part:
1. Fibrinogen Binding to Human Thrombocytes Blood obtained by puncture of an antecubital vein was anticoagulated with trisodium citrate (final concentration: 13 mM) and centrifuged for 10 minutes at 170 *g. The supernatant platelet-rich plasma was placed on a Sepharose 2B column (Pharmacia) and eluted with a solution of 90 mM common salt, 14 mM trisodium citrate, 5 mM glucose and 50 mM tris(hydroxymethyl)aminomethane, adjusted to pH 7.4. The gel-filtered platelets (GFP) appearing in front of the plasma proteins were used for the binding tests. 50 μl of a 60 mM calcium chloride solution, 50 μl of a 0.6 mM adenosine diphosphate solution, 100 μl of substance solution or solvent and 50 μl of fibrinogen solution (containing 3 μg I125-fibrinogen) were added to 750 μl of GFP and incubated for 20 minutes at ambient temperature. The non-specific binding was measured in the presence of 3 mg/ml of cold fibrinogen. 900 μl of the incubate were carefully pipetted onto 250 μl of silicon oil (AP 38: AR 20, 1:2 v/v, Wacker Chemie) in Eppendorf vessels and centrifuged for 2 minutes at 10,000 *g. The aqueous supernatant and some of the oil were removed, the tip of the vessel with the platelet pellet was cut off and the quantity of bound fibrinogen was measured in a gamma-counter. The concentration of substance which inhibited fibrinogen binding by 50% was calculated from a series of concentrations and given as the IC50.

Where a name gives a salt, the structure may show the parent alone.

`Cn1c(-c2ccc(-c3ccc(C(=N)N)cc3)cc2)cn(CCC(=O)O)c1=O` [1(118), 4-(4'-amidino-4-biphenylyl)-1-(2-carboxy-ethyl)-3-methyl-3H-imidazol-2-onehydrochloride]: the EC50 (as a rule, the concentration needed to bring the measured effect to its halfway point) in assay [1] is 460 nM. The IC50 (as a rule, the concentration needed to halve the response being measured) in the assay with Human Thrombocytes was 170 nM.
The like results for `COC(=O)CNCCN1CCN(c2ccc(C(=N)N)cc2)C1=O` [2(75), 1-(4-amidino-phenyl)-3-(2-methoxycarbonylmethylamino-ethyl)-imidazolidin-2-one hydrochloride-acetate] were, in that order, 27000 nM and 8000 nM.
`COC(=O)CCc1ccc(-n2cc(-c3ccc(C(=N)N)cc3)n(C)c2=O)cc1` [2(81), 4-(4-amidino-phenyl)-1-[4-(2-methoxycarbonyl-ethyl)-phenyl]-3-methyl-3H-imidazol-2-one hydrochloride]: the half-maximal effective concentration (EC50) in assay [1] amounted to 1500 nM. Also, the concentration for half-maximal inhibition (IC50) in the assay on Human Thrombocytes was determined as 19000 nM.
On the same counts, the results for `COC(=O)CCN1CCN(c2ccc(-c3ccc(C(=N)N)cc3)cc2)S1(=O)=O` [2(20), 2-(4'-amidino-4-biphenylyl)-5-(2-methoxycarbonyl-ethyl)-3,4-dihydro-2H,5H-1,2,5-thiadiazole-1,1-dioxide hydrochloride] are 690 nM and 5700 nM.
`COC(=O)CCc1ccc(-n2cnn(-c3ccc(C(N)=NC(=O)OC)cc3)c2=O)cc1` [5(11), 2-(4-methoxycarbonylamidino-phenyl)-3-[4-(2-methoxycarbonyl-ethyl)-phenyl]-4H-1,2,4-triazol-3-one]: the IC50 with Human Thrombocytes was 5700 nM.
Turning to `COC(=O)CCc1ccc(-n2cc(C)n(-c3ccc(C(=N)N)cc3)c2=O)cc1` [2(122), 3-(4-amidino-phenyl)-1-[4-(2-methoxycarbonyl-ethyl)-phenyl]-4-methyl-3H-imidazol-2-one hydrochloride-hydrate], in assay [1], the EC50 amounted to 1200 nM.
Same read-out and setting: the figure for `COC(=O)CCc1ccc(-n2nc(C)n(-c3ccc(C(=N)N)cc3)c2=O)cc1` [2(117), 4-(4-amidino-phenyl)-2-[4-(2-methoxycarbonyl-ethyl)-phenyl]-5-methyl-4H-1,2,4-triazol-3-one hydrochloride] is 630 nM; for `COC(=O)CCc1ccc(-n2ncn(-c3ccc(C(=N)N)cc3)c2=O)cc1` [2(124), 4-(amidino-phenyl)-2-[4-(2-methoxycarbonyl-ethyl)-phenyl]-4H-1,2,4-triazol-3-one hydrochloride] it is 130 nM.
Same read-out and setting: the figure for `Cc1nn(-c2ccc(C(=N)N)cc2)c(=O)n1-c1ccc(CCC(=O)OC(C)C)cc1` [11(11), 2-(4-amidino-phenyl)-4-[4-(2-isopropyloxycarbonyl-ethyl)-phenyl]-5-methyl-4H-1,2,4-triazol-3-one hydrochloride] is 210 nM.
The same measure, in the same setting: the figure for `Cc1cn(-c2ccc(CCC(=O)O)cc2)c(=O)n1-c1ccc(C(=N)N)cc1` [1(144), 3-(4-amidino-phenyl)-1-[4-(2-carboxy-ethyl)-phenyl]-4-methyl-3H-imidazol-2-one] is 600 nM.
As for `COC(=O)CCC1CCC(N2CCN(c3ccc(C(=N)NC(=O)OC)cc3)C2=O)CC1` (stereo not drawn) [5(12), 1-(4-methoxycarbonylamidino-phenyl)-3-[4-(2-methoxycarbonyl-ethyl)-cyclohexyl]-imidazolidin-2-one], the IC50 in the assay on Human Thrombocytes turned out to be 3700 nM.
On to `COC(=O)CS(=O)(=O)c1ccc(N2CCN(c3ccc(C(=N)N)cc3)C2=O)cc1` [Example 18, 1-(4-Amidino-phenyl)-3-(methoxycarbonylmethylsulphonyl-phenyl)-imidazolidin-2-one], for which the EC50 in assay [1] worked out at 240 nM.
Still for that read-out and setting: to `Cc1nn(-c2ccc(CCC(=O)O)cc2)c(=O)n1-c1ccc(C(=N)N)cc1` [1(137), 4-(4-amidino-phenyl)-2-[4-(2-carboxy-ethyl)-phenyl]-5-methyl-4H-1,2,4-triazol-3-one] belongs 280 nM.
The same measure, in the same setting: to `COC(=O)CSc1ccc(N2CCN(c3ccc(C(=N)N)cc3)C2=O)cc1` [2(45), 1-(4-amidino-phenyl)-3-(4-methoxycarbonyl-methylthio-phenyl)-imidazolidin-2-one] belongs 280 nM.

(Values after patent publication US5276049A, “Cyclic urea derivatives, pharmaceutical compositions containing these compounds and methods of using the same” (Dr. Karl Thomae GmbH, priority 1991, dated 1994).)
